Results on 89 compounds are retold here after a melting point compilation (Tetko et al.; mined from patent text by program, amines drawn as free bases though some values may be those of a salt).

Each structure is given as a SMILES string.

For the compound `COC(=O)c1ccc(C=Cc2cnc3nc(NC(=O)C(C)(C)C)nc(O)c3c2)[nH]1`, the melting point (in general, the temperature of the solid-liquid transition) was over 260 °C.
Next, `CC(C)c1ccccc1Sc1c(O)cc(-c2ccc(OCC(=O)O)cc2)oc1=O`: 217 °C; `COCc1nnc(NC(=O)C2c3ccccc3Oc3ccccc32)o1`: 113 to 114 °C; `CCn1cc2c(n1)c(N)nc1cc(O)ccc12`: 214 to 215 °C.
Next, `CCOc1nn(C(=O)NS(=O)(=O)c2c(C(=O)N(C)C)csc2C)c(=O)n1C`: 162 °C; `COc1ccnc(-c2sccc2S(C)=O)c1` (centres undefined): 103 to 105 °C; `Cc1ccccc1S(=O)(=O)OC1C2C(C(=O)N1Cc1ccc3c(c1)OCO3)C(c1ccc(Br)cc1)N(C)C2(C)C` (centres undefined): 172 to 173 °C.
Next, `CCCCc1nc(C(O)C(C)(C)C)c(C(N)=O)n1Cc1ccc(-c2ccccc2-c2nnn[nH]2)cc1` (centres undefined): 157 to 160 °C; `Cc1nc2c(N)nc3ccccc3c2n1CCCNC(=O)c1ccccc1`: 230 to 231 °C.
Consider `CN1CCN(C(=O)c2ccc3n2Cc2ccccc2N(C(=O)c2ccc(C4CCCCC4)cc2)C3)CC1`, for which the melting point was 134 to 136 °C.
With `CCOC(=O)c1csc(N2CCOC2=O)n1`, the melting point was 157 to 159 °C.
Next, `O=P(O)(O)C(O)(CCc1ccc(Cl)cc1)P(=O)(O)O`: 201 °C; `N#Cc1ccc(-c2ccc(C(=O)NCCCCN3CCC(c4ccc5ccccc5c4O)CC3)cc2)cc1`: 135 to 140 °C; `Cc1nc(Cl)c([N+](=O)[O-])c(NCCOCCNC(=O)OC(C)(C)C)c1C`: 70 to 73 °C.
Turning to `Cc1ccc(-c2c(Cl)ncnc2OCCO)cc1`, the melting point lay in the range of 62 to 64 °C.
Consider `Cc1c(C(=O)NC2C3(C)CCC(C3)C2(C)C)c2ccc(Cl)c(Cl)c2n1CCCNS(C)(=O)=O` (centres undefined), for which the melting point was in the range of 150 to 154 °C.
Next, `O=C(O)CCSC1c2cccc(O)c2C(=O)c2c(O)cccc21`: 152 to 153 °C.
Next, `O=C(O)[C@@H]1CSC(c2ccccc2O)N1C(=O)CCBr` (some centres undefined): 109 to 115 °C.
Consider `CCCc1sc(-c2ccccc2)nc1OC(=O)Nc1ccccc1`, for which the melting point was 104 to 105 °C.
`COc1ccc(C(OCC2OC(n3cc(C)c(=O)[nH]c3=O)CC2O)(c2ccccc2)c2ccc(OC)cc2)cc1` (centres undefined) showed a melting point of 124 to 126 °C.
Next, `CC1(C#CC2(C(F)(F)F)C=NC(=O)Nc3ccc(Cl)cc32)CC1` (centres undefined): 196 to 198 °C; `COc1ccc(C(=O)Nc2ccc(C(=O)NC(C)(C)C)cc2)cc1C12CC3CC(CC(C3)C1)C2`: 270 to 273 °C.
Next, `O=C1c2ccccc2-c2c1c(Cl)nc1ccc(Br)cc21`: 304 to 306 °C; `COc1ccc2nc(NC(=O)C(CC3CCCC3)c3ccc(S(=O)(=O)Nc4cccnc4)cc3)sc2n1` (centres undefined): 125 to 127 °C.
Next, `COC(=O)N(CC(=O)Nc1ccc(S(N)(=O)=O)cc1Cl)c1ccccc1`: 196 to 198 °C; `O=CNc1nc(S(=O)(=O)Cl)n[nH]1`: 194 to 196 °C; `O=[N+]([O-])c1cc2c(cc1C=Cc1ccccn1)OCO2`: 167 to 170 °C.
In turn, `Nc1cc(C(F)(F)F)cc(C(F)(F)F)n1` showed a melting point of 70.8 to 71.2 °C.
Next, `CC(=O)Oc1ccc(C(=O)c2ccc(OC(C)=O)cc2)cc1`: 120 to 122 °C; `Cc1[nH]c(=O)ccc1-c1ccc(S(C)=O)cc1` (centres undefined): 262 to 264 °C.
Compound `COc1ccc2nc(Cl)cc(C=CN(C)C)c2c1` showed a melting point of 162 to 164 °C.
Next, `COc1ccc(-c2cnn3c(N)c(-c4ccc(F)c(Cl)c4)c(C)nc23)cc1OC`: 235 to 238 °C; `CS(=O)(=O)NN(c1ccc([N+](=O)[O-])cc1N)S(=O)(=O)c1cccc(S(=O)(=O)F)c1`: 204 to 209 °C; `O=c1[nH]c(-c2c(F)cccc2F)nn1-c1ccccc1C(F)(F)F`: 259 to 260 °C.
Next, `CCc1cccc(CC)c1NC(=O)C1c2ccccc2COc2ccc(Br)cc21` (centres undefined): 234 to 235 °C; `O=C(O)CN1C(=O)C(=Cc2ccc(-c3ccccc3)cc2)SC1=S`: 258 to 262 °C; `COc1ccc(C(=O)Nc2ccccc2)cc1NS(=O)(=O)c1cccc2cccnc12`: 187 to 188 °C.
In the case of `N#CC(c1ccc(F)cc1)c1ccc([N+](=O)[O-])cc1C(F)(F)F` (centres undefined), the melting point is 68 °C.
Next, `CC(=O)Oc1ccc(-c2ccc(C(C)=O)cc2)cc1`: 124 to 126 °C.
Consider `CC(Cn1ncnn1)n1nnc2cc3c(cc2c1=O)OC1COCCN1C3=O` (centres undefined), for which the melting point fell in the range of 188 to 190 °C.
Next, `CCc1ccc(Nc2nc3cc(NC(=O)c4cccc(CCl)c4)ccc3o2)cc1`: 194 to 195 °C.
Next, `COc1cc(-c2ncc(C(F)(F)F)cc2Cl)ccc1C#N`: 135 to 137 °C.
Next, `CCOC(=O)c1cc2cc(-c3ccccc3)ccc2o1`: 109 to 110 °C; `NC(=O)C(F)(F)Cc1c[nH]c([N+](=O)[O-])n1`: 150 to 152 °C; `CC(C)(C)C(=O)NS(=O)(=O)c1cccc([N+](=O)[O-])c1`: 178 to 181 °C.
Compound `CCOC1=Nc2c(C)cccc2Nc2ncccc21` yielded a melting point of 135 to 136 °C.
The compound `O=C(C[C@@H](O)C(=O)O)c1ccccc1` showed a melting point of 128 to 131 °C.
Next, `Cc1nn(C(CCCc2ccccc2)C(C)O)c2ncn(Cc3ccc(Cl)c(Cl)c3)c(=O)c12` (centres undefined): 160 °C; `CCC12CCC3=C(CCc4cc(OC)ccc43)C1CCC21OCCO1` (centres undefined): 135 to 137 °C; `CN(C#N)C(=O)CCC(=O)N(C)C#N`: 112 to 114 °C.
Next, `CNC(=O)c1cc2nc(C(F)(F)F)ccc2cc1NC(=O)c1cc(Br)nn1-c1ncccc1Cl`: 127 to 129 °C; `CCCNc1ncnc2c1ncn2C1CC(F)C(CO)O1` (centres undefined): 114 to 115 °C.
Next, `CC(=O)NC1CCN(CCCOc2ccc3c4c(c(=O)oc3c2)CCCC4)CC1`: 90 to 92 °C; `O=Cc1c2ccccc2c(Cl)c2c(Cl)cccc12`: 167 to 170 °C; `COc1ccc(-c2ccc(C(=O)c3ccccc3)cc2)cc1`: 167 to 168 °C.
On to `CC1(C)CCCN(CC2(O)CCNCC2)C1`, for which the melting point lay within 48 to 52 °C.
The compound `CCCc1c(OCc2ccc(CSc3nnn[nH]3)cc2)ccc(C(C)=O)c1O` came in with a melting point of 160 to 161 °C.
Next, `OCc1cccc(-n2cccc2)n1`: 55 °C; `CC(=O)Oc1ccc2c(ccc3ccccc32)c1`: 141 to 142 °C.
Next, `CC(C)C[C@@H](C#N)NC(=O)[C@@H]1CCCC[C@@H]1NC(=O)c1ccc2ncsc2c1`: 200 to 201 °C; `COc1ccc(CN(C)C2CCN(c3ccc([N+](=O)[O-])cc3)CC2)cc1`: 144 to 145 °C; `COc1ccc(-c2c(Cl)c(CNS(=O)(=O)c3ccccc3)nc3sc4c(c23)CCN(Cc2ccccc2)C4)cc1OC`: 153 to 154 °C.
Next, `Clc1ccccc1Cn1ncnc1I`: 98 °C; `COc1cc2ncnc(N3CCC(O)(CCN4C=CC(C)=NS4(=O)=O)CC3)c2cc1OC`: 203 to 204 °C.
With `CNc1nc(SC)ncc1Cl`, the melting point was 241 °C.
Next, `Cc1c(OCC(F)(F)F)ccnc1CS(=O)c1nc2ccccc2n1N` (centres undefined): 111 to 113 °C; `COC1(c2cccc(S(=O)(=O)c3ccc4c(c3)oc(=O)n4C)c2)CCOCC1`: 163 to 165 °C.
Next, `CNC(=O)CCc1nc(-c2ccc(Cl)cc2)co1`: 169 to 170 °C; `CC(C)(C)OC(=O)CN(C(=O)CNC(=O)Nc1ccccc1)c1ccccc1C(=O)c1ccccc1`: 166 to 167 °C.
Next, `CC(=O)NCC1CN(c2ccc(-c3cccc(CF)c3)c(F)c2)C(=O)O1` (centres undefined): 120 to 122 °C; `O=C1COCC2=C1C(c1ccc(F)c(I)c1)C1=C(CCS1)N2` (centres undefined): over 260 °C; `N#Cc1ccc(C=Cc2ccccc2)cc1`: 119 °C.
Turning to `CN(C(=O)NCCCl)c1ccc(C(O)(C(F)(F)F)C(F)(F)F)cc1`, the melting point is 120 to 121 °C.
Next, `O=C(O)/C=C/C(=O)c1ccoc1`: 104 to 106 °C.
Next, `[N-]=[N+]=NC1CC(n2cc(I)c(=O)[nH]c2=O)OC1C(O)C(c1ccccc1)(c1ccccc1)c1ccccc1` (centres undefined): 80 °C; `CCCCCCCCCCCCCCCCCCOC(=O)P(=O)(O)O`: 81 to 82 °C.
Next, `Cn1cc(C2=C(c3c4n(c5ccccc35)CCC3(CCCC3NC(=O)OC(C)(C)C)C4)C(=O)OC2=O)c2ccccc21` (centres undefined): 123 to 125 °C.
Consider `CN(C)C=C(C#N)CC#N`, for which the melting point amounted to 49 °C.
Next, `Cc1nnc2ccc(-c3cccc(F)c3)nn12`: 184 to 186 °C; `CC(C)(C)CC(C)(C)c1cc(Cc2cc(C(C)(C)C)cc(-n3nc4ccccc4n3)c2O)c(O)c(C(C)(C)CC(C)(C)C)c1`: 166 °C.
`COc1cc(CN2CCC(=C3c4ccccc4CCn4ccnc43)CC2)cc(OC)c1OCc1ccc2ccccc2n1` displayed a melting point of 215 °C.
Next, `COc1ccc(-n2nc(CO)c3c2CCC3)cc1`: 88 to 89 °C; `COc1ccc(CCNC(=O)N(C)O)cc1OC`: 103 to 104 °C.
As for `O=C(O)C(=O)c1ccc(OCCCc2ccc3ccccc3c2)cc1`, the melting point was 123 to 124 °C.
Next, `COC[C@H]1CCCN1C(=O)c1cc(-c2ccccc2)c(=O)n2c1-c1ccccc1C2`: 130 to 131 °C; `O=C(O)COc1ccccc1N1CCN(c2ccncc2)CC1`: 294 to 296 °C; `c1cc(-c2cccc3ncoc23)c2ocnc2c1`: 226 to 228 °C.
Next, `[N-]=[N+]=Nc1cnn(-c2cc(-c3ccnc(Nc4cccc(Cl)c4)n3)ccn2)c(=O)c1Cl`: 184 to 186 °C; `CC1(C)OC(C=Cc2ccc(C#N)cc2)=CC1=O`: 170 °C.
